Laboratory results published in patent US20230255966A1, “A COMBINATION OF A CBP/P300 BROMODOMAIN INHIBITOR AND AN EGFR INHIBITOR FOR USE IN TREATING EGFR-MUTANT NSCLC” (TOLREMO THERAPEUTICS AG, priority 2020, published 2023).

How the values were obtained:
Assay in all cases: BROMOscan BromoKdMAX
Format in all cases: binding
BRDT(1, 2) = target: T1, BRDT(1, 2) (Homo sapiens, UniProt Q58F21)
T1 construct: T7 phage strains displaying bromodomains were grown in parallel; purchased DiscoverX; host or cells: T7 phage in E. coli host derived from BL21
Protocol: (§1) A BromoKdMAX was performed at DiscoverX.
(§2) The assay principle is the following: BROMOscan™ is a novel industry leading platform for identifying small molecule bromodomain inhibitors. Based on proven KINOMEscan™ technology, BRO-MOscan™ employs a proprietary ligand binding site-directed competition assay to quantitatively measure interactions between test compounds and bromodomains.
(§3) The assay was conducted as follows: For the Bromodomain assays, T7 phage strains displaying bromodomains were grown in parallel in 24-well blocks in an E. coli host derived from the BL21 strain. E. coli were grown to log-phase and infected with T7 phage from a frozen stock (multiplicity of infection=0.4) and incubated with shaking at 32° C. until lysis (90-150 minutes). The lysates were centrifuged (5,000×g) and filtered (0.2 μm) to remove cell debris. […] The liganded beads were blocked with excess biotin and washed with blocking buffer (SeaBlock (Pierce), 1% BSA, 0.05% Tween 20, 1 mM DTT) to remove unbound ligand and to reduce non-specific phage binding. […] Test compounds were prepared as 1000× stocks in 100% DMSO. Kds were determined using an 11-point 3-fold compound dilution series with one DMSO control point. […] The compounds were then diluted directly into the assays such that the final concentration of DMSO was 0.09%. All reactions performed in polypropylene 384-well plates. Each was a final volume of 0.02 ml. […] The bromodomain concentration in the eluates was measured by qPCR.

TRIM24(Bromo.) = target: T2, TRIM24(Bromo.) (Homo sapiens, UniProt O15164)
T2 construct: TRIM24(Bromo.); purchased DiscoverX (BROMOscan / BromoKdMAX service); host or cells: T7 phage in E. coli host derived from BL21
Protocol: as §1, §2, §3

BRD2(2) = target: T3, BRD2(2) (Homo sapiens, UniProt P25440)
T3 construct: T7 phage strains displaying bromodomains were grown in parallel; purchased DiscoverX; host or cells: T7 phage in E. coli host derived from BL21
Protocol: as §1, §2, §3

T2 sequence (O15164 899-1004 limits assumed): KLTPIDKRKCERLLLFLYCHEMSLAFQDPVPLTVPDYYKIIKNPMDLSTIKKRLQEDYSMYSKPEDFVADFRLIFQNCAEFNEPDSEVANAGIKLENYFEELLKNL
T3 sequence (P25440 344-453 limits assumed): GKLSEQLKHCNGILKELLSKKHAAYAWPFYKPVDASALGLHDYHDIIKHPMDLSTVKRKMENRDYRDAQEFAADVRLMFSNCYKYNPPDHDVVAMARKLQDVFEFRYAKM

With CO[C@H]1CC[C@H](n2c([C@@H]3CCCC(=O)N3c3ccc(F)c(F)c3)nc3cc(-c4c(C)noc4C)ccc32)CC1 [CCS1477] the Kd (BRDT(1, 2)) was 2400 nM, the Kd (TRIM24(Bromo.)) was 680 nM and the Kd (BRD2(2)) was 2100 nM.
